According to patent publication US10653705B2, “Applications for estrone in preparing anti-ovarian cancer and/or breast cancer products” (SHANGHAI JIAO TONG UNIVERSITY, priority 2015, dated 2020):

Legend:
Assay type in all cases: cell-based
[1] = test system: HCC1395 breast cancer cells; experiment: CellTiter-Glo luminescent cell viability assay, HCC1395 breast cancer cells; details: Homo sapiens, 72 hours
Method: In example 1, CELLTITER-GLO was used to test estrone against ovarian cancer and/or breast cancer m) A cell counter was used to count the number of suspended cells and adjust the cell suspension to an appropriate density in the plate to carry out cell plating experiments. 2. The drug analyte estrone was prepared and administered (200× final concentration): a) DMSO was used to dilute the analyte estrone to 20 mM for use. b) 79 μL of the 20 mM analyte prepared in step a) was added to the first well in the first row of the dilution plate, and then 54 μL of DMSO solution was added to the second through ninth wells of the first row. […] The final concentrations (μM) of the analyte drug in wells 2-10 in FIG. 1 are, in order: 100, 31.64557, 10.01442, 3.16912, 1.002886, 0.317369, 0.100433, 0.031783, 0.010058; B. CELLTITER-GLO Luminescent Cell Viability Assay System c) 100 μl of CellTiter-Glo reagent (prepared as described in 1 above) was added to all drug screening plates and mixed evenly. d) It was thoroughly oscillated in a 96-well microplate oscillator for 2 minutes to allow the cells to undergo full lysis. e) It was stored away from light at room temperature for 15 minutes before carrying out luminescent signal detection to ensure signal stability. f) An EnSpire multi-function plate reader was used at 570 nm to read the luminescent signals. g) Data was processed and analyzed. […]

[2] = test system: NCI-H1437 human lung cancer cells; experiment: CellTiter-Glo luminescent cell viability assay, NCI-H1437 human lung cancer cells; details: 72 hours
[3] = test system: NCI-H460 large-cell lung cancer cells; experiment: CellTiter-Glo luminescent cell viability assay, NCI-H460 large-cell lung cancer cells; details: Homo sapiens, 72 hours
[4] = test system: SKOV-3 ovarian cancer cells; experiment: CellTiter-Glo luminescent cell viability assay, SKOV-3 ovarian cancer cells
Excerpt: In example 1, CELLTITER-GLO was used to test estrone against ovarian cancer and/or breast cancer m) A cell counter was used to count the number of suspended cells and adjust the cell suspension to an appropriate density in the plate to carry out cell plating experiments. SKOV-3 cells were handled as described above, and a SKOV-3 96-well cell culture plate was obtained. The complete medium for SKOV-3 cells was McCOY'S 5A (a live product), Cat #16600082, with a cells/well density of 12000. 2. The drug analyte estrone was prepared and administered (200× final concentration): a) DMSO was used to dilute the analyte estrone to 20 mM for use. b) 79 μL of the 20 mM analyte prepared in step a) was added to the first well in the first row of the dilution plate, and then 54 μL of DMSO solution was added to the second through ninth wells of the first row. […] The final concentrations (μM) of the analyte drug in wells 2-10 in FIG. 1 are, in order: 100, 31.64557, 10.01442, 3.16912, 1.002886, 0.317369, 0.100433, 0.031783, 0.010058; B. CELLTITER-GLO Luminescent Cell Viability Assay System a) Before testing, the SKOV-3 96-well drug screening plate described in 3 above was stabilized to room temperature for 20-30 minutes. c) 100 μl of CellTiter-Glo reagent (prepared as described in 1 above) was added to all drug screening plates and mixed evenly. d) It was thoroughly oscillated in a 96-well microplate oscillator for 2 minutes to allow the cells to undergo full lysis. e) It was stored away from light at room temperature for 15 minutes before carrying out luminescent signal detection to ensure signal stability. f) An EnSpire multi-function plate reader was used at 570 nm to read the luminescent signals. g) Data was processed and analyzed.

IC50 [1]: 68 µM | EC50 ([1]; FIG. 3): 74000 µM | IC50 [2]: ≥ 100 µM | IC50 [3]: ≥ 100 µM | IC50 ([4]; Homo sapiens, SK-OV-3, SKOV-3 cells, 72 hours, CellTiter-Glo): 21.5 µM | EC50 ([4]; Homo sapiens, SK-OV-3, SKOV-3 cells, 72 hours, CellTiter-Glo, FIG. 2): 16.4 µM
Compound: C[C@]12CC[C@@H]3c4ccc(O)cc4CC[C@H]3[C@@H]1CCC2=O [Estrone]
effect on the proliferation of ovarian cancer cells ([4]; compared with the lung cancer cell lines of Table 1): specific inhibitory effect
